Biological target: post-Amadori AGE formation (RNase Amadori)
Test: Post-Amadori inhibitory activity: inhibition of AGE formation from RNase Amadori, detected by ELISA (BST-3CK antibody, DELFIA Europium)
Assay type: biochemical
Conditions: for potency at inhibiting post-Amadori AGE formation compared to PM: comparison with pyridoxamine (PM)
Procedure: This example illustrates the activity of the dimer and trimer for inhibiting post-Amadori AGE formation compared to pyridoxamine.
All reactions were done in duplicate All compound stocks were 100 mM in DMSO. All reactions were carried out for 20 hours in 10% DMSO and 0.18 M Phosphate pH 7.4 Reaction volumes were 50 μl. Compound dilutions were first done in 100% DMSO Add to each well: • 20 μl of 0.2 M Phosphate • then 5 μl of compound dilution in 100% DMSO mix • Add 25 μl of 0.2 mg/ml RNase Amadori produced for a final protein concentration in the reaction of 0.1 mg/ml. • After 20 hours the reaction wells were diluted with coating buffer 5 to 50 then 4 to 50 to give a final concentration of 0.8 μg/ml or 40 ng/well. • Coat for two hours • Block one hour • 1 hour with primary antibody BST-3CK @ 1:10,000 • 1 hour with secondary antibody DELFIA Europium GAR @ 0.25 μg/ml (secondary antibody stock is at 660 μg/ml so diluted about 1:2500).
Compounds were tested over the range of concentrations 1000 to 1 μM.

[1] = 20 hours, 10% DMSO, 0.18 M Phosphate pH 7.4, 0.1 mg/ml RNase Amadori, tested 1000 to 1 μM, duplicate

Row | IC50 [1] [mM] | potency at inhibiting post-Amadori AGE formation compared to PM | IC50 (from previous experiments) [mM] | SMILES
1 | 1 | more potent than PM | – | Cc1ncc(CO)c(Cc2nc(C)c(O)c(CN)c2CO)c1O [Dimer X]
2 | – | – | 7 | Cc1ncc(CO)c(CN)c1O [Sigma PM, 4-aminomethyl-3-hydroxy-5-hydroxymethyl-2-methylpyridine, reference compound]
3 | 0.4 | more potent than PM | – | Cc1ncc(CO)c(Cc2nc(C)c(O)c(Cc3nc(C)c(O)c(CN)c3CO)c2CO)c1O [Trimer XX]

From patent US8431712B2, “Methods for the synthesis of pyridoxamine” (NephroGenex, Inc., priority 2004, dated 2013)
